Source: patent US20110195845A1, “Constructs for Expressing Herbicide Tolerance Genes, Related Plants, and Related Trait Combinations” (Dow AgroSciences LLC, priority 2008, published 2011)

What was measured:
[1] = system: Escherichia coli BL21-Star (DE3) expressing PAT (v3); assay: Complementation of cell growth on glufosinate, pDAB4434 (PAT v3); format: cell-based; parameters: key: −− = No Growth; +++ = Distinct Colony Growth; conditions: 24 hrs @28 C, 20 uM IPTG
From the text: A pET28a(+) expression plasmid containing PAT (v3) was constructed as a positive control. PAT (v3) was cloned as an NcoI-SacI fragment into corresponding restriction sites of pDAB779. Positive clones containing the PAT (v3) gene fragment were verified via restriction enzyme digestion. This construct was labeled as pDAB4434.
(§1) The plasmids, pDAB4434, pDAB4412, and an empty pET vector (control) were transformed into Escherichia coli BL21-Star (DE3) bacterial cells. Expression cultures were initiated with 10-200 freshly transformed colonies into 250 mL LB medium containing 50 μg/ml antibiotic and 75 μM IPTG (isopropyl-[…]). The cultures were grown at 28° C. for 24 hours at 180-200 rpm. Five microliters of the culture was inoculated onto a complex media control and minimal media containing incrementally increasing concentrations of glufosinate and 20 μM IPTG. The cultures were dispersed evenly over the plates and incubated at 28° C. for 24 hours.

[2] = system: Escherichia coli BL21-Star (DE3) expressing DSM-2 (v2); assay: Complementation of cell growth on glufosinate, pDAB4412 (DSM-2 v2); format: cell-based; parameters: bacterial growth on minimal media: key: −− = No Growth; +++ = Distinct Colony Growth; conditions: for bacterial growth on minimal media: 24 hrs @28 C, 20 uM IPTG
Method: as §1

PAT (pDAS1942) corn = assay: T2 corn response to glufosinate applied postemergence; format: in vivo; conditions: 14DAT
[3] = system: Escherichia coli BL21-Star (DE3) with AtUbi10 promoter//DSM-2 (v2) (3778); assay: Plant promoter driven complementation on glufosinate, plasmid 3778; format: cell-based; parameters: bacterial growth on minimal media: key: ++++ = Heavy Lawn Growth; +++ = Lawn Growth; ++ = Lots of Distinct Colonies; + = Scattered Colony Growth; conditions: for bacterial growth on minimal media: 48 hrs @37 C
Method: Plasmid constructs in which the DSM-2 (v2) and PAT gene coding sequences were expressed, under either the viral promoters CsVMV or the plant promoter AtUbi10, were assayed for complementation on minimal media containing glufosinate. The plasmids 3778 (Rb7 MARv3//AtUbi10 promoter//DSM-2 (v2)//Atu Orf 1 3′UTR), 3779 (Rb7 MARv3//AtUbi10 promoter//PAT//Atu Orf 1 3′UTR), 3264 (CsVMV promoter//DSM-2//Atu Orf 24 3′UTR), 3037 (CsVMV promoter//PAT//Atu Orf 25/26 3′UTR), and 770 (control plasmid containing CsVMV promoter//GUS v3//Atu Orf 24 3′UTR) were transformed into Escherichia coli BL21-Star (DE3) and grown up in complex media. Five microliters of the cultures were plated on minimal media containing increasing concentrations of Glufosinate and incubated at 37° C. for 48 hours.

Wildtype corn = assay: Leaf paint with glufosinate in corn; format: in vivo; conditions: for % Injury: 2 WAT
Method: (§2) T0 DSM-2 (v2) plants were painted with a rundown of glufosinate herbicide. Four siblings from each of 15 T0 events were tested, and 4 leaves on each individual plant received a rundown of glufosinate at approximately V8 stage. Rundown treatments were randomized for each rate allowing for variation of treatment location on individual leaves. For corn, 0.25% v/v glufosinate is the minimum effective dose to distinguish sensitive plants from ones with meaningful levels of resistance. Elevated rates were also applied to determine relative levels of resistance (0.5%, 1.0%, and 2.0% v/v). Glufosinate treatments were applied using cotton tipped applicators to a treatment area of approximately 2.5 cm in diameter.
(§3) Table 11 compares the response of DSM-2 (v2) and control genes to impart glufosinate resistance to corn T0 transformants. Response is presented in terms of % visual injury 2 WAT. […] Since each T0 is an independent transformation event, one can expect significant variation of individual T0 responses within a given rate. An arithmetic mean and standard deviation is presented for each treatment. Untransformed wildtype corn served as a glufosinate sensitive control. The DSM-2 (v2) gene imparted herbicide resistance to individual T0 corn plants. Within a given treatment, the level of plant response varied greatly and can be attributed to the fact each plant represents an independent transformation event.

[4] = system: T0 PAT-transformed corn plants; assay: Leaf paint with glufosinate in T0 corn; format: in vivo; conditions: 2 WAT
Method: as §2, §3

[5] = system: T0 DSM-2 (v2)-transformed corn plants; assay: Leaf paint with glufosinate in T0 corn; format: in vivo; conditions: for % Injury: 2 WAT
Method: as §2, §3

[6] = system: Arabidopsis seed (wildtype, PAT, DSM-2 (v2)); assay: DSM-2 (v2) as selectable marker: survival of sown seed after glufosinate spray; format: in vivo, Arabidopsis thaliana
Method: The ability to use DSM-2 (v2) as a selectable marker using glufosinate as the selection agent was analyzed with Arabidopsis transformed as described above. Approximately 100 T1 generation Arabidopsis seed (100-150 seeds) containing for DSM-2 (v2) or 2 mg homozygous T5 plants containing PAT were spiked into approximately 10,000 wildtype (sensitive) seed. Each tray of plants received two application timings of 280 g ai/ha glufosinate at the following treatment times: 7 DAP and 11 DAP. Treatments were applied with a DeVilbiss spray tip as previously described. Another 2 mg T1 generation Arabidopsis seed from each was sown and not sprayed as a comparison count. Plants were identified as Resistant or Sensitive 17 DAP.

[7] = 560 g ai/ha glufosinate postemergence
[8] = 2240 g ai/ha glufosinate postemergence
[9] = 0.25% v/v glufosinate leaf paint
[10] = 0.5% v/v glufosinate leaf paint

**Q.** With `CP(=O)(O)CCC(N)C(=O)O` (centres unmarked) [glufosinate] as the compound, how does the “bacterial growth on minimal media” value ([1]; 250 μg/ml BASTA) read?
**A.** +++

**Q.** And the “bacterial growth on minimal media” value ([1]; 500 μg/ml BASTA)?
**A.** +++

**Q.** What about the “bacterial growth on minimal media” value ([1]; 1000 μg/ml BASTA) of the same compound?
**A.** +++

**Q.** What about the “bacterial growth on minimal media” value ([1]; 2000 μg/ml BASTA) of the same compound?
**A.** +++

**Q.** And the “bacterial growth on minimal media” value ([1]; 4000 μg/ml BASTA)?
**A.** +++

**Q.** What about the “bacterial growth on minimal media” value ([2]; 250 μg/ml BASTA) of the same compound?
**A.** +++

**Q.** What about the “bacterial growth on minimal media” value ([2]; 500 μg/ml BASTA) of the same compound?
**A.** +++

**Q.** What about the “bacterial growth on minimal media” value ([2]; 1000 μg/ml BASTA) of the same compound?
**A.** +++

**Q.** What about the “bacterial growth on minimal media” value ([2]; 2000 μg/ml BASTA) of the same compound?
**A.** +++

**Q.** And the “bacterial growth on minimal media” value ([2]; 4000 μg/ml BASTA)?
**A.** +++

**Q.** What about the “concentration in minimal media at which expression of DSM-2 complemented resistance” value ([2]; minimal media) of the same compound?
**A.** 400 µg/mL

**Q.** What about the “% Injury Ave” value (PAT (pDAS1942) corn; [7]) of the same compound?
**A.** 6%

**Q.** What about the “individuals with % Injury <20%” value (PAT (pDAS1942) corn; [7]) of the same compound?
**A.** 4

**Q.** And the “individuals with % Injury >40%” value (PAT (pDAS1942) corn; 1120 g ai/ha glufosinate postemergence)?
**A.** 3

**Q.** And the “% Injury Ave” value (PAT (pDAS1942) corn; [8])?
**A.** 25%

**Q.** And the “individuals with % Injury 20-40%” value (PAT (pDAS1942) corn; [8])?
**A.** 1

**Q.** And the “individuals with % Injury <20%” value (PAT (pDAS1942) corn; [8])?
**A.** 2

**Q.** And the “individuals with % Injury >40%” value (PAT (pDAS1942) corn; [8])?
**A.** 1

**Q.** And the “individuals with % Injury <20%” value (PAT (pDAS1942) corn; 4480 g ai/ha glufosinate postemergence)?
**A.** 0

**Q.** And the “bacterial growth on minimal media” value ([3]; 250 μg/ml BASTA)?
**A.** ++++

**Q.** And the “bacterial growth on minimal media” value ([3]; 500 μg/ml BASTA)?
**A.** +++

**Q.** And the “bacterial growth on minimal media” value ([3]; 1000 μg/ml BASTA)?
**A.** +++

**Q.** And the “bacterial growth on minimal media” value ([3]; 2000 μg/ml BASTA)?
**A.** ++

**Q.** And the “bacterial growth on minimal media” value ([3]; 4000 μg/ml BASTA)?
**A.** ++

**Q.** And the “concentration in minimal media to which promoter-driven DSM-2 provided resistance” value ([3]; At Ubi10 promoter, minimal media)?
**A.** 200 µg/mL

**Q.** And the “% Injury” value (Wildtype corn; [9])?
**A.** 33%

**Q.** What about the “% Injury” value (Wildtype corn; [10]) of the same compound?
**A.** 50%

**Q.** What about the “% Injury” value (Wildtype corn; 1% v/v glufosinate leaf paint) of the same compound?
**A.** 84%

**Q.** And the “% Injury” value (Wildtype corn; 2% v/v glufosinate leaf paint)?
**A.** 90%

**Q.** What about the “minimum effective dose to distinguish sensitive plants from ones with meaningful levels of resistance” value (Wildtype corn; corn, leaf paint) of the same compound?
**A.** 0.25 % v/v

**Q.** And the “% Injury” value [4, 9]?
**A.** 1%

**Q.** And the “% Injury” value [4, 10]?
**A.** 3%

**Q.** And the “% Injury” value ([4]; 1% v/v glufosinate leaf paint)?
**A.** 6%

**Q.** And the “% Injury” value ([4]; 2% v/v glufosinate leaf paint)?
**A.** 9%

**Q.** And the “% Injury” value [5, 9]?
**A.** 0%

**Q.** And the “% Injury” value [5, 10]?
**A.** 1%

**Q.** And the “% Injury” value ([5]; 1% v/v glufosinate leaf paint)?
**A.** 2%

**Q.** And the “% Injury” value ([5]; 2% v/v glufosinate leaf paint)?
**A.** 4%

**Q.** What about the “performance compared to PAT-transformed plants” value ([5]; up to 2% v/v glufosinate) of the same compound?
**A.** performs better overall than PAT-transformed plants

**Q.** What about the “Number of Surviving Plants Following glufosinate Spray” value (“Number” for short) ([6]; 280 g ai/ha glufosinate 7 DAP and 11 DAP, Trt 1: 200 mg WT planted) of the same compound?
**A.** 0

**Q.** And the “Number” value ([6]; 280 g ai/ha glufosinate, Trt 2: 2 mg PAT planted)?
**A.** 154

**Q.** What about the “Number” value ([6]; 280 g ai/ha glufosinate, Trt 3: 200 mg WT + 2 mg PAT planted) of the same compound?
**A.** 121

**Q.** What about the “Number” value ([6]; 280 g ai/ha glufosinate, Trt 4: 2 mg DSM-2 (v2) planted) of the same compound?
**A.** 117

**Q.** What about the “Number” value ([6]; 280 g ai/ha glufosinate, Trt 5: 200 mg WT + 2 mg DSM-2 (v2) planted) of the same compound?
**A.** 121
